Test system: NCI-H1876 tumor spheroid viability
Assay: Anticancer human tumor NCI-H1876 cell line growth inhibition;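 also: spheroids exposed to compounds for seven days before the viability read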;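 as to viability, T/C: percent of DMSO vehicle control viability so 100% = vehicle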
Settings: spheroids with HUVEC and MSC; for IC50: curve of first compound; for viability, T/C: stronger effect = lower value
Procedure, shortened: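 Single agents and combinations were tested on spheroids built from tumor cells plus HUVEC and hMSC, at half-log dilutions starting at or near clinical Cmax, else 10 microM; final DMSO 0.25% (v/v).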

[1] = second compound 0.003 µM, first compound 0.0316 µM
[2] = second compound 0.003 µM, first compound 0.1 µM
[3] = second compound 0.003 µM, first compound 0.316 µM
[4] = second compound 0.003 µM, first compound 1 µM
[5] = second compound 0.003 µM, first compound 3.16 µM
[6] = second compound 0.003 µM, first compound 10 µM

COc1ccc([C@@H](O)c2cc(-c3ncnc4cc(N5CCOCC5)ccc34)c(F)cc2Cl)nn1 + CC[C@@]1(O)C(=O)OCc2c1cc1n(c2=O)Cc2cc3c(CN(C)C)c(O)ccc3nc2-1
IC50 (second compound 0.003 µM): 1650 nM | IC50 (second compound 0.00949 µM): < 31.6 nM | IC50 (second compound 0.03 µM): < 31.6 nM | IC50 (second compound 0.0949 µM): < 31.6 nM | IC50 (second compound 0.3 µM): < 31.6 nM | viability, T/C [1]: 88.7% | viability, T/C [2]: 83.7% | viability, T/C [3]: 85.3% | viability, T/C [4]: 67.1% | viability, T/C [5]: 27.6% | viability, T/C [6]: 10.9% | viability, T/C (second compound 0.00949 µM, first compound 0.0316 µM): 15.9% | viability, T/C (second compound 0.00949 µM, first compound 0.1 µM): 15.2% | viability, T/C (second compound 0.00949 µM, first compound 0.316 µM): 17.8% | viability, T/C (second compound 0.00949 µM, first compound 1 µM): 12.2% | viability, T/C (second compound 0.00949 µM, first compound 3.16 µM): 8.75% | viability, T/C (second compound 0.00949 µM, first compound 10 µM): 5.67% | viability, T/C (second compound 0.03 µM, first compound 0.0316 µM): 3.61% | viability, T/C (second compound 0.03 µM, first compound 0.1 µM): 6.14% | viability, T/C (second compound 0.03 µM, first compound 0.316 µM): 3.33% | viability, T/C (second compound 0.03 µM, first compound 1 µM): 3.01% | viability, T/C (second compound 0.03 µM, first compound 3.16 µM): 2.56% | viability, T/C (second compound 0.03 µM, first compound 10 µM): 2.82% | viability, T/C (second compound 0.0949 µM, first compound 0.0316 µM): 2.02% | viability, T/C (second compound 0.0949 µM, first compound 0.1 µM): 2.62% | viability, T/C (second compound 0.0949 µM, first compound 0.316 µM): 2.15% | viability, T/C (second compound 0.0949 µM, first compound 1 µM): 2.18% | viability, T/C (second compound 0.0949 µM, first compound 3.16 µM): 1.69% | viability, T/C (second compound 0.0949 µM, first compound 10 µM): 2.92% | viability, T/C (second compound 0.3 µM, first compound 0.0316 µM): 1.88% | viability, T/C (second compound 0.3 µM, first compound 0.1 µM): 1.98% | viability, T/C (second compound 0.3 µM, first compound 0.316 µM): 1.62% | viability, T/C (second compound 0.3 µM, first compound 1 µM): 1.27% | viability, T/C (second compound 0.3 µM, first compound 3.16 µM): 1.46% | viability, T/C (second compound 0.3 µM, first compound 10 µM): 1.93%

CC1COCCN1c1cc(-c2ccnn2C)c2ccnc(-c3ccn[nH]3)c2n1 (stereo not given) + COc1cc2c(cc1O)CCNC21CSC2c3c(OC(C)=O)c(C)c4c(c3C(COC1=O)N1C(O)C3Cc5cc(C)c(OC)c(O)c5C(C21)N3C)OCO4
IC50 (second compound 30 pM): < 31.6 nM | IC50 (second compound 94.9 pM): < 31.6 nM | IC50 (second compound 0.0003 µM): < 31.6 nM | IC50 (second compound 0.000949 µM): < 31.6 nM | IC50 (second compound 0.003 µM): < 31.6 nM | viability, T/C (second compound 30 pM, first compound 0.0316 µM): 30.7% | viability, T/C (second compound 30 pM, first compound 0.1 µM): 17.9% | viability, T/C (second compound 30 pM, first compound 0.316 µM): 11.3% | viability, T/C (second compound 30 pM, first compound 1 µM): 4.58% | viability, T/C (second compound 30 pM, first compound 3.16 µM): 3.01% | viability, T/C (second compound 30 pM, first compound 10 µM): 2.83% | viability, T/C (second compound 94.9 pM, first compound 0.0316 µM): 17.4% | viability, T/C (second compound 94.9 pM, first compound 0.1 µM): 10.3% | viability, T/C (second compound 94.9 pM, first compound 0.316 µM): 6.18% | viability, T/C (second compound 94.9 pM, first compound 1 µM): 3.39% | viability, T/C (second compound 94.9 pM, first compound 3.16 µM): 2.3% | viability, T/C (second compound 94.9 pM, first compound 10 µM): 2.27% | viability, T/C (second compound 0.0003 µM, first compound 0.0316 µM): 5.4% | viability, T/C (second compound 0.0003 µM, first compound 0.1 µM): 4.29% | viability, T/C (second compound 0.0003 µM, first compound 0.316 µM): 2.95% | viability, T/C (second compound 0.0003 µM, first compound 1 µM): 2.33% | viability, T/C (second compound 0.0003 µM, first compound 3.16 µM): 2.39% | viability, T/C (second compound 0.0003 µM, first compound 10 µM): 2.2% | viability, T/C (second compound 0.000949 µM, first compound 0.0316 µM): 2.56% | viability, T/C (second compound 0.000949 µM, first compound 0.1 µM): 2.32% | viability, T/C (second compound 0.000949 µM, first compound 0.316 µM): 1.67% | viability, T/C (second compound 0.000949 µM, first compound 1 µM): 1.48% | viability, T/C (second compound 0.000949 µM, first compound 3.16 µM): 1.48% | viability, T/C (second compound 0.000949 µM, first compound 10 µM): 2.04% | viability, T/C [1]: 0.92% | viability, T/C [2]: 1.05% | viability, T/C [3]: 0.72% | viability, T/C [4]: 0.9% | viability, T/C [5]: 0.88% | viability, T/C [6]: 0.28%

From PubChem BioAssay AID1845207 (Molecular Pharmacology Branch, DTP, NCI, 2023)
